Test results taken from PubChem BioAssay (NCI).
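Test compounds were applied to cells in 96-well plates for 48 hours at 5 doses. GI50 = concentration required for 50% inhibition of growth. TGI is the concentration that stops growth completely.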

How the values were obtained:
Test in all cases: inhibition of tumour cell growth, NCI panel, 48 h
SF-539 CNS = test system: SF-539 CNS
DU-145 prostate = test system: DU-145 prostate
SR leukemia = test system: SR leukemia
MDA-MB-231 breast = test system: MDA-MB-231 breast
A549 NSCLC = test system: A549 NSCLC
HL-60(TB) leukemia = test system: HL-60(TB) leukemia
NCI/ADR-RES ovarian = test system: NCI/ADR-RES ovarian
786-0 renal = test system: 786-0 renal
HT29 colon = test system: HT29 colon
NCI-H23 lung = test system: NCI-H23 lung
IGROV1 ovarian = test system: IGROV1 ovarian
EKVX NSCLC = test system: EKVX NSCLC
PC-3 prostate = test system: PC-3 prostate
NCI-H226 lung = test system: NCI-H226 lung
SW-620 colon = test system: SW-620 colon
MCF7 breast = test system: MCF7 breast
TK-10 renal = test system: TK-10 renal
KM12 colon = test system: KM12 colon
T-47D breast = test system: T-47D breast
RPMI-8226 leukemia = test system: RPMI-8226 leukemia
HCT-116 colon = test system: HCT-116 colon
MDA-MB-435 = test system: MDA-MB-435
A498 renal = test system: A498 renal
SNB-75 CNS = test system: SNB-75 CNS
RXF 393 renal = test system: RXF 393 renal
BT-549 breast = test system: BT-549 breast
SN12C renal = test system: SN12C renal
CAKI-1 renal = test system: CAKI-1 renal
UACC-62 melanoma = test system: UACC-62 melanoma
NCI-H460 lung = test system: NCI-H460 lung
SK-MEL-5 melanoma = test system: SK-MEL-5 melanoma
HS 578T breast = test system: HS 578T breast
SK-OV-3 ovarian = test system: SK-OV-3 ovarian
OVCAR-4 ovarian = test system: OVCAR-4 ovarian
LOX IMVI melanoma = test system: LOX IMVI melanoma
UACC-257 melanoma = test system: UACC-257 melanoma
MALME-3M melanoma = test system: MALME-3M melanoma
NCI-H522 lung = test system: NCI-H522 lung
SF-268 CNS = test system: SF-268 CNS
COLO 205 colon = test system: COLO 205 colon
SNB-19 CNS = test system: SNB-19 CNS
SF-295 CNS = test system: SF-295 CNS
OVCAR-5 ovarian = test system: OVCAR-5 ovarian
ACHN renal = test system: ACHN renal
HCT-15 colon = test system: HCT-15 colon
OVCAR-8 ovarian = test system: OVCAR-8 ovarian
M14 melanoma = test system: M14 melanoma
HCC-2998 colon = test system: HCC-2998 colon
SK-MEL-28 melanoma = test system: SK-MEL-28 melanoma
CCRF-CEM leukemia = test system: CCRF-CEM leukemia
MOLT-4 leukemia = test system: MOLT-4 leukemia
HOP-62 NSCLC = test system: HOP-62 NSCLC
UO-31 renal = test system: UO-31 renal
U251 CNS = test system: U251 CNS
SK-MEL-2 melanoma = test system: SK-MEL-2 melanoma
K-562 leukemia = test system: K-562 leukemia

Structure (SMILES): O=C(N/N=C\c1ccc(Cl)cc1)c1ccc2nc(-c3ccc(Br)cc3)[nH]c2c1
- GI50 (SF-539 CNS): 1.72 µM
- TGI (SF-539 CNS): 3.24 µM
- GI50 (DU-145 prostate): 1.98 µM
- TGI (DU-145 prostate): 4.18 µM
- GI50 (SR leukemia): 0.895 µM
- TGI (SR leukemia): 3.39 µM
- GI50 (MDA-MB-231 breast): 1.9 µM
- TGI (MDA-MB-231 breast): 3.89 µM
- GI50 (A549 NSCLC): 1.75 µM
- TGI (A549 NSCLC): 3.3 µM
- GI50 (HL-60(TB) leukemia): 2.04 µM
- TGI (HL-60(TB) leukemia): 5.03 µM
- GI50 (NCI/ADR-RES ovarian): 2.44 µM
- TGI (NCI/ADR-RES ovarian): 8.01 µM
- GI50 (786-0 renal): 1.76 µM
- TGI (786-0 renal): 3.26 µM
- GI50 (HT29 colon): 1.04 µM
- TGI (HT29 colon): 2.38 µM
- GI50 (NCI-H23 lung): 1.86 µM
- TGI (NCI-H23 lung): 4.02 µM
- GI50 (IGROV1 ovarian): 1.58 µM
- TGI (IGROV1 ovarian): 3.41 µM
- GI50 (EKVX NSCLC): 2.03 µM
- TGI (EKVX NSCLC): 4.28 µM
- GI50 (PC-3 prostate): 1.58 µM
- TGI (PC-3 prostate): 2.99 µM
- GI50 (NCI-H226 lung): 4.96 µM
- TGI (NCI-H226 lung): 24 µM
- GI50 (SW-620 colon): 1.6 µM
- TGI (SW-620 colon): 3.26 µM
- GI50 (MCF7 breast): 1.01 µM
- TGI (MCF7 breast): 2.46 µM
- GI50 (TK-10 renal): 2.07 µM
- TGI (TK-10 renal): 3.89 µM
- GI50 (KM12 colon): 1.86 µM
- TGI (KM12 colon): 4.16 µM
- GI50 (T-47D breast): 1.58 µM
- TGI (T-47D breast): 3.25 µM
- GI50 (RPMI-8226 leukemia): 1.6 µM
- TGI (RPMI-8226 leukemia): 3.89 µM
- GI50 (HCT-116 colon): 1.49 µM
- TGI (HCT-116 colon): 2.99 µM
- GI50 (MDA-MB-435): 1.52 µM
- TGI (MDA-MB-435): 3.15 µM
- GI50 (A498 renal): 1.67 µM
- TGI (A498 renal): 3.68 µM
- GI50 (SNB-75 CNS): 1.83 µM
- TGI (SNB-75 CNS): 4.01 µM
- GI50 (RXF 393 renal): 1.5 µM
- TGI (RXF 393 renal): 3.18 µM
- GI50 (BT-549 breast): 1.87 µM
- TGI (BT-549 breast): 5.54 µM
- GI50 (SN12C renal): 1.76 µM
- TGI (SN12C renal): 3.49 µM
- GI50 (CAKI-1 renal): 1.6 µM
- TGI (CAKI-1 renal): 3.1 µM
- GI50 (UACC-62 melanoma): 1.85 µM
- TGI (UACC-62 melanoma): 3.85 µM
- GI50 (NCI-H460 lung): 0.601 µM
- TGI (NCI-H460 lung): 1.94 µM
- GI50 (SK-MEL-5 melanoma): 1.85 µM
- TGI (SK-MEL-5 melanoma): 3.63 µM
- GI50 (HS 578T breast): 2.19 µM
- TGI (HS 578T breast): 5.27 µM
- GI50 (SK-OV-3 ovarian): 1.51 µM
- TGI (SK-OV-3 ovarian): 3.87 µM
- GI50 (OVCAR-4 ovarian): 2.07 µM
- TGI (OVCAR-4 ovarian): 4.83 µM
- GI50 (LOX IMVI melanoma): 1.49 µM
- TGI (LOX IMVI melanoma): 3.09 µM
- GI50 (UACC-257 melanoma): 1.6 µM
- TGI (UACC-257 melanoma): 3.1 µM
- GI50 (MALME-3M melanoma): 1.68 µM
- TGI (MALME-3M melanoma): 3.22 µM
- GI50 (NCI-H522 lung): 1.63 µM
- TGI (NCI-H522 lung): 3.38 µM
- GI50 (SF-268 CNS): 2.56 µM
- TGI (SF-268 CNS): 6.87 µM
- GI50 (COLO 205 colon): 1.43 µM
- TGI (COLO 205 colon): 2.86 µM
- GI50 (SNB-19 CNS): 2.11 µM
- TGI (SNB-19 CNS): 4.91 µM
- GI50 (SF-295 CNS): 2.07 µM
- TGI (SF-295 CNS): 4.59 µM
- GI50 (OVCAR-5 ovarian): 1.99 µM
- TGI (OVCAR-5 ovarian): 4.26 µM
- GI50 (ACHN renal): 1.75 µM
- TGI (ACHN renal): 3.17 µM
- GI50 (HCT-15 colon): 1.52 µM
- TGI (HCT-15 colon): 3.33 µM
- GI50 (OVCAR-8 ovarian): 1.49 µM
- TGI (OVCAR-8 ovarian): 2.88 µM
- GI50 (M14 melanoma): 1.92 µM
- TGI (M14 melanoma): 3.93 µM
- GI50 (HCC-2998 colon): 1.83 µM
- TGI (HCC-2998 colon): 3.61 µM
- GI50 (SK-MEL-28 melanoma): 1.73 µM
- TGI (SK-MEL-28 melanoma): 3.26 µM
- GI50 (CCRF-CEM leukemia): 1.9 µM
- TGI (CCRF-CEM leukemia): 4.73 µM
- GI50 (MOLT-4 leukemia): 1.62 µM
- TGI (MOLT-4 leukemia): 4.29 µM
- GI50 (HOP-62 NSCLC): 1.64 µM
- TGI (HOP-62 NSCLC): 3.2 µM
- GI50 (UO-31 renal): 1.45 µM
- TGI (UO-31 renal): 2.86 µM
- GI50 (U251 CNS): 1.78 µM
- TGI (U251 CNS): 3.18 µM

Structure (SMILES): Nc1cc(-c2c[nH]c3ccc(Br)cc23)nc2cc(-c3c[nH]c4ccc(Br)cc34)nn12
- GI50 (SF-539 CNS): 1.46 µM
- TGI (SF-539 CNS): 2.92 µM
- GI50 (SK-MEL-2 melanoma): 1.67 µM
- TGI (SK-MEL-2 melanoma): 3.27 µM
- GI50 (DU-145 prostate): 1.72 µM
- TGI (DU-145 prostate): 3.23 µM
- GI50 (MDA-MB-231 breast): 1.89 µM
- TGI (MDA-MB-231 breast): 3.79 µM
- GI50 (NCI/ADR-RES ovarian): 2.5 µM
- TGI (NCI/ADR-RES ovarian): 6.14 µM
- GI50 (HT29 colon): 1.71 µM
- TGI (HT29 colon): 3.15 µM
- GI50 (NCI-H226 lung): 2.14 µM
- TGI (NCI-H226 lung): 6.11 µM
- GI50 (TK-10 renal): 1.8 µM
- TGI (TK-10 renal): 3.39 µM
- GI50 (KM12 colon): 1.48 µM
- TGI (KM12 colon): 2.96 µM
- GI50 (RPMI-8226 leukemia): 3.17 µM
- TGI (RPMI-8226 leukemia): > 100 µM
- GI50 (MDA-MB-435): 1.71 µM
- TGI (MDA-MB-435): 3.25 µM
- GI50 (A498 renal): 1.57 µM
- TGI (A498 renal): 4.07 µM
- GI50 (SNB-75 CNS): 1.17 µM
- TGI (SNB-75 CNS): 3.77 µM
- GI50 (RXF 393 renal): 1.83 µM
- TGI (RXF 393 renal): 3.54 µM
- GI50 (SN12C renal): 1.84 µM
- TGI (SN12C renal): 3.64 µM
- GI50 (CAKI-1 renal): 1.43 µM
- TGI (CAKI-1 renal): 3.15 µM
- GI50 (UACC-62 melanoma): 1.48 µM
- TGI (UACC-62 melanoma): 3.05 µM
- GI50 (SK-MEL-5 melanoma): 1.7 µM
- TGI (SK-MEL-5 melanoma): 3.18 µM
- GI50 (HS 578T breast): 2.3 µM
- TGI (HS 578T breast): 7.54 µM
- GI50 (SK-OV-3 ovarian): 1.71 µM
- TGI (SK-OV-3 ovarian): 3.44 µM
- GI50 (OVCAR-4 ovarian): 2.03 µM
- TGI (OVCAR-4 ovarian): 5.25 µM
- GI50 (UACC-257 melanoma): 1.63 µM
- TGI (UACC-257 melanoma): 3.2 µM
- GI50 (MALME-3M melanoma): 1.93 µM
- TGI (MALME-3M melanoma): 4.08 µM
- GI50 (COLO 205 colon): 1.76 µM
- TGI (COLO 205 colon): 3.23 µM
- GI50 (SF-295 CNS): 1.89 µM
- TGI (SF-295 CNS): 3.57 µM
- GI50 (OVCAR-5 ovarian): 1.53 µM
- TGI (OVCAR-5 ovarian): 3.11 µM
- GI50 (ACHN renal): 1.56 µM
- TGI (ACHN renal): 2.96 µM
- GI50 (HCT-15 colon): 1.36 µM
- TGI (HCT-15 colon): 3.18 µM
- GI50 (K-562 leukemia): 2.81 µM
- TGI (K-562 leukemia): > 100 µM
- GI50 (HCC-2998 colon): 1.8 µM
- TGI (HCC-2998 colon): 3.34 µM
- GI50 (SK-MEL-28 melanoma): 1.62 µM
- TGI (SK-MEL-28 melanoma): 3.08 µM
- GI50 (CCRF-CEM leukemia): 3.21 µM
- TGI (CCRF-CEM leukemia): > 100 µM
- GI50 (UO-31 renal): 1.47 µM
- TGI (UO-31 renal): 2.79 µM
